# Measurements as given in article PMC11522928 (JACS Au, 2024).
# Experiments:
# [1] = system: chick embryos given CoCl2; experiment: CoCl2 ischemia / hypoxia study, embryo survival; assay type: in vivo, Gallus gallus domesticus; settings: CoCl2 hexahydrate 1.2 mg, 0.54 M
# chick embryos = experiment: Embryo survival after dosing on the CAM
# [2] = system: chick chorioallantoic membrane (CAM) vasculature; experiment: Chick chorioallantoic membrane; assay type: in vivo, Gallus gallus domesticus; settings: 0.75 mg/kg (18.87 µM; antibody 1 mg/mL), n = 2-3, 24 h
molecule,measurement,setting,value
"O.O.O.O.O.O.[Cl-].[Cl-].[Co+2] [CoCl2, CoCl2 hexahydrate]",mortality of embryos treated only with CoCl2,"[1]; 32× LD50, 12 h, n = 4",100%
same,mortality of embryos treated only with CoCl2,"[1]; 32× LD50, 24 h, n = 8",100%
COC(=O)N[C@@H](Cc1ccccc1)C(=O)N[C@@H](Cc1ccc(NS(=O)(=O)O)cc1)c1csc(-c2cccs2)n1 [Razuprotafib],embryo survival,"chick embryos; dosed at 400 μM, n = 2",50%
same,"lethality, embryos dead / embryos tested",chick embryos; dosed at 40 mM on the CAM,7/8
"Ang-1: human Ang-1 protein (Gibco) (protein, UniProt Q15389 16-498, looked up) Angiopoietin-1: HIGCSNQRRSPENSGRRYNRIQHGQCAYTFILPEHDGNCRESTTDQYNTNALQRDAPHVEPDFSSQKLQHLEHVMENYTQWLQKLENYIVENMKSEMAQIQQNAVQNHTATMLEIGTSLLSQTAEQTRKLTDVETQVLNQTSRLEIQLLENSLSTYKLEKQLLQQTNEILKIHEKNSLLEHKILEMEGKHKEELDTLKEEKENLQGLVTRQTYIIQELEKQLNRATTNNSVLQKQQLELMDTVHNLVNLCTKEGVLLKGGKREEEKPFRDCADVYQAGFNKSGIYTIYINNMPEPKKVFCNMDVNGGGWTVIQHREDGSLDFQRGWKEYKMGFGNPSGEYWLGNEFIFAITSQRQYMLRIELMDWEGNRAYSQYDRFHIGNEKQNYRLYLKGHTGTAGKQSSLILHGADFSTKDADNDNCMCKCALMLTGGWWFDACGPSNLNGMFYTAGQNHGKLNGIKWHYFKGPSYSLRSTTMMIRPLDF","whether CAM results recapitulate those of KU04212, in words",[2],None of these agents gave results consistent with KU04212
